According to patent EP4725941A1, “ARYLAMIDE DERIVATIVE HAVING ANTITUMOR ACTIVITY” (priority 2020, dated 2021):
pIC50: −log10 of the molar value. Like-named read-outs stand apart in the source and are kept apart here.

Experiments:
BRAF = target: T1, BRAF (Homo sapiens, UniProt P15056); assay: BRAF-inhibiting activity, time-resolved fluorescence-fluorescence resonance energy transfer assay; assay type: biochemical
T1 construct: purchased Eurofins Genomics KK; (BRAF); Thermo Fisher Scientific Inc. (MEK1)
Experimental: The BRAF-inhibiting activity of the compounds listed in Table 3 below was evaluated by the time-resolved fluorescence-fluorescence resonance energy transfer assay as described below.

Colo-205 = Colo-205 growth-inhibiting activity; assay type: cell-based; details: Table 1, human cancer cells with BRAF mutation
MEK1 [1] = target: T2, MEK1 (Homo sapiens, UniProt Q02750); assay: MEK1-inhibiting activity, fluorescent polarization method (CRAF/MEK1/ERK2 cascade, IMAP); assay type: biochemical
T2 construct: purchased Thermo Fisher Scientific Inc. (MEK1, CRAF); Carna Biosciences, Inc. (ERK2)

HCT-116 = HCT-116 growth-inhibiting activity; assay type: cell-based; details: Table 1, human cancer cells with RAS mutation
A549 = assay: Cell proliferation-inhibiting activity (ATP in viable cells, CellTiter-Glo), A549; assay type: cell-based, human; details: A549, 96 h; human lung cancer cells, 4 days; read-out: A549 IC50
NCI-H2122 = assay: Cell proliferation-inhibiting activity (ATP in viable cells, CellTiter-Glo), NCI-H2122; assay type: cell-based, human; details: NCI-H2122, 96 h; human lung cancer cells, 4 days; read-out: NCI-H2122 IC50
[2] = Human liver microsome stability; assay type: in vitro ADME; details: human liver microsomes, pH 7.4
Calu-6 = assay: Cell proliferation-inhibiting activity (ATP in viable cells, CellTiter-Glo), Calu-6; assay type: cell-based, human; details: Calu-6, 96 h; human lung cancer cells, 4 days; read-out: Calu-6 IC50
MEK1 [3] = target: T2, MEK1; assay: MEK1-inhibiting activity, fluorescent polarization method (CRAF/MEK1/ERK2 cascade, IMAP); assay type: biochemical; details: Table 3; read-out: MEK1 IC50
Experimental: The MEK1-inhibiting activity of the compounds listed in Table 3 below were evaluated by the fluorescent polarization method as described below.

T2 sequence (Q02750 whole entry): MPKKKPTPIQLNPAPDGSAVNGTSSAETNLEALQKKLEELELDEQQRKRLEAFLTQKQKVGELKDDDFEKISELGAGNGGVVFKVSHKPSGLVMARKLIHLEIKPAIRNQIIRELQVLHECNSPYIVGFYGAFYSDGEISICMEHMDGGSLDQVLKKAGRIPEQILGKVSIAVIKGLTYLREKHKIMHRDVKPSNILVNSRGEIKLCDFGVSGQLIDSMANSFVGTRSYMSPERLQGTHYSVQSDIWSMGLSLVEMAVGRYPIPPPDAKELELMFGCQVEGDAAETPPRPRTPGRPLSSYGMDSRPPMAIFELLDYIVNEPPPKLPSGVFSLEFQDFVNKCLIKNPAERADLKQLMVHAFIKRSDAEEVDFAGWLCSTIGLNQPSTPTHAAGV
T1 sequence (P15056 417-766 limits assumed): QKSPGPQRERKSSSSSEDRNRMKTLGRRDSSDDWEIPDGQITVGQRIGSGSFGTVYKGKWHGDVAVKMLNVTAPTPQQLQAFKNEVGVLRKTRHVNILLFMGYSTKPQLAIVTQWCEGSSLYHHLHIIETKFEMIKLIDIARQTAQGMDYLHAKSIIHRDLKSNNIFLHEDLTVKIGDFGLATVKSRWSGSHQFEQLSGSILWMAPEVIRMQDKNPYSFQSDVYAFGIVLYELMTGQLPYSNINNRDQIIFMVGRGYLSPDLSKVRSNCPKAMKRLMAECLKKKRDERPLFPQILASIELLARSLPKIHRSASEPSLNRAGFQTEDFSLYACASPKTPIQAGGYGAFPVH

## CNS(=O)(=O)NCC(=O)N(Cc1cc(C(=O)NOCCO)c(Nc2ccc(I)cc2F)c(F)c1F)OC [AA-1, 3,4-Difluoro-2-(2-fluoro-4-iodoanilino)-N-(2-hydroxyethoxy)-5-[[methoxy-[2-(methylsulfamoylamino)acetyl]amino]methyl]benzamide]
BRAF; Table 1; read-out: BRAF IC50
  pIC50: 8.52
Colo-205
  pIC50: 9.40
MEK1 [1]; Table 1
  pIC50: 7.68
HCT-116
  pIC50: 8.70

## CNS(=O)(=O)Nc1cccc(Cc2c(CC(=O)NOCCO)c3ccc(Oc4ncccn4)cc3oc2=O)c1F [AA-2, 2-[3-[[2-Fluoro-3-(methylsulfamoylamino)phenyl]methyl]-2-oxo-7-pyrimidin-2-yloxychromen-4-yl]-N-(2-hydroxyethoxy)acetamide]
BRAF; Table 1; read-out: BRAF IC50
  pIC50: 5.66
MEK1 [1]; Table 1
  pIC50: < 5.10
HCT-116
  pIC50: 4.35

## CNS(C)(=O)=Nc1nccc(Cc2cc(C(N)=O)c(Nc3ccc(I)cc3F)c(F)c2F)c1F (stereo not drawn) [Compound A-43, 3,4-Difluoro-2-(2-fluoro-4-iodoanilino)-5-[[3-fluoro-2-[[methyl-(methylamino)-oxo-λ6-sulfanylidene]amino]pyridin-4-yl]methyl]benzamide]
A549
  pIC50: 8.70
BRAF; Table 3; read-out: BRAF IC50
  pIC50: 8.00
NCI-H2122
  pIC50: 7.89
[2]
  microsomal CLint at 0.99 µM: 37 µL/min/mg
MEK1 [1]; Table 3
  pIC50: 7.39

## CNS(=O)(=O)Nc1nccc(Cc2cc(C(N)=O)c(Nc3ccc4sccc4c3F)c(F)c2F)c1F [Compound H-3, 3,4-difluoro-2-[(4-fluoro-1-benzothiophen-5-yl)amino]-5-[[3-fluoro-2-(methylsulfamoylamino)pyridin-4-yl]methyl]benzamide]
BRAF; Table 3; read-out: BRAF IC50
  pIC50: 8.40
[2]
  microsomal CLint at 0.99 µM: 149 µL/min/mg
MEK1 [1]; Table 3
  pIC50: 8.70

## CCNS(=O)(=O)Nc1cccc(Cc2cc(C(N)=O)c(Nc3ccc(I)cc3F)n(C)c2=O)c1F [Compound K-2, 5-[13-(Ethylsulfamoylamino)-2-fluorophenyl|methyl]-2-(2-fluoro-4-iodoanilino)-1-methyl-6-oxopyridine-3-carboxamide]
Calu-6
  pIC50: 7.57
A549
  pIC50: 8.22
BRAF; read-out: BRAF IC50; Table 3
  pIC50: 8.40
NCI-H2122
  pIC50: 8.22
[2]
  microsomal CLint at 0.99 µM: 234 µL/min/mg
MEK1 [3]
  pIC50: 7.14

## Cn1c(Nc2ccc(I)cc2F)c(C(N)=O)cc(Cc2cccc(NS(=O)(=O)NC3CC3)c2F)c1=O [Compound K-3, 5-[[3-(Cyclopropylsulfamoylamino)-2-fluorophenyl]methyl]-2-(2-fluor o-4-iodoanilino)-1-methyl-6-oxopyridine-3-carboxamide]
Calu-6
  pIC50: 7.51
A549
  pIC50: 8.05
BRAF; read-out: BRAF IC50; Table 3
  pIC50: 8.30
NCI-H2122
  pIC50: 8.00
[2]
  microsomal CLint at 0.99 µM: 247 µL/min/mg
MEK1 [3]
  pIC50: 7.08

## CNS(=O)(=O)Nc1cccc(Cc2cc(C(=O)NC3CC3)c(Nc3ccc(I)cc3F)n(C)c2=O)c1F [Compound K-4, N-Cyclopropyl-2-(2-fluoro-4-iodoanilino)-5-[[2-fluoro-3-(methylsulfamoylamino)phenyl]methyl]-1-methyl-6-oxopyridine-3-carboxamide]
Calu-6
  pIC50: 7.60
A549
  pIC50: 8.22
BRAF; read-out: BRAF IC50; Table 3
  pIC50: 7.96
NCI-H2122
  pIC50: 8.30
[2]
  microsomal CLint at 0.99 µM: 129 µL/min/mg
MEK1 [3]
  pIC50: 6.97

## Cn1c(Nc2ccc(I)cc2F)c(C(=O)NC2CC2)cc(Cc2cccc(NS(=O)(=O)NC3CC3)c2F)c1=O [Compound K-5, N-Cyclopropyl-5-[[3-(cyclopropylsulfamoylamino)-2-fluorophenyl]methyl]-2-(2-fluoro-4-iodoanilino)-1-methyl-6-oxopyridine-3-carboxamide]
Calu-6
  pIC50: 6.96
A549
  pIC50: 7.60
BRAF; read-out: BRAF IC50; Table 3
  pIC50: 8.05
NCI-H2122
  pIC50: 7.64
[2]
  microsomal CLint at 0.99 µM: 245 µL/min/mg
MEK1 [3]
  pIC50: 6.86

## Cn1c(Nc2ccc(I)cc2F)c(C(N)=O)cc(Cc2cccc(NS(=O)(=O)C3(C)CC3)c2F)c1=O [Compound K-6, 2-(2-Fluoro-4-iodoanilino)-5-[[2-fluoro-3-[(1-methylcyclopropyl)sulfonylamino]phenyl]methyl]-1-methyl-6-oxopyridine-3-carboxamide]
Calu-6
  pIC50: 7.08
A549
  pIC50: 7.60
BRAF; read-out: BRAF IC50; Table 3
  pIC50: 7.82
NCI-H2122
  pIC50: 7.68
[2]
  microsomal CLint at 0.99 µM: 499 µL/min/mg
MEK1 [3]
  pIC50: 6.64

## CONC(=O)c1cc(Cc2cccc(NS(=O)(=O)C3(C)CC3)c2F)c(=O)n(C)c1Nc1ccc(I)cc1F [Compound K-7, 2-(2-Fluoro-4-iodoanilino)-5-[[2-fluoro-3-[(1-methylcyclopropyl)sulfonylamino]phenyl]methyl]-N-methoxy-1-methyl-6-oxopyridine-3-carboxamide]
Calu-6
  pIC50: 7.57
A549
  pIC50: 8.05
BRAF; read-out: BRAF IC50; Table 3
  pIC50: 7.85
NCI-H2122
  pIC50: 8.15
[2]
  microsomal CLint at 0.99 µM: 357 µL/min/mg
MEK1 [3]
  pIC50: 7.51

## CCS(=O)(=O)Nc1cccc(Cc2cc(C(N)=O)c(Nc3ccc(I)cc3F)n(C)c2=O)c1F [Compound K-10, 5-[[3-(Ethylsulfonylamino)-2-fluorophenyl]methyl]-2-(2-fluoro-4-iodoanilino)-1-methyl-6-oxopyridine-3-carboxamide]
Calu-6
  pIC50: 7.09
A549
  pIC50: 7.60
BRAF; read-out: BRAF IC50; Table 3
  pIC50: 8.10
NCI-H2122
  pIC50: 7.80
[2]
  microsomal CLint at 0.99 µM: 69 µL/min/mg
MEK1 [3]
  pIC50: 6.89

## Cn1c(Nc2ccc(I)cc2F)c(C(=O)NC2CC2)cc(Cc2cccc(NS(=O)(=O)C3(C)CC3)c2F)c1=O [Compound K-11, N-Cyclopropyl-2-(2-fluoro-4-iodoanilino)-5-[[2-fluoro-3-[(1-methylcyclopropyl)sulfonylamino]phenyl]methyl]-I-methyl-6-oxopyridine-3-carb oxamide]
Calu-6
  pIC50: 6.64
A549
  pIC50: 7.03
BRAF; read-out: BRAF IC50; Table 3
  pIC50: 7.82
NCI-H2122
  pIC50: 7.07
[2]
  microsomal CLint at 0.99 µM: 437 µL/min/mg
MEK1 [3]
  pIC50: 6.56

## Cn1c(Nc2ccc(I)cc2F)c(C(=O)NOC(C)(C)C)cc(Cc2cccc(NS(=O)(=O)C3(C)CC3)c2F)c1=O [Compound K-12, 2-(2-Fluoro-4-iodoanilino)-5-[2-fluoro-3-[(1-methylcyclopropyl)sulfonylamino]phenyl]methyl]-1-methyl-N-[(2-methylpropan-2-yl)oxyl-6-oxo pyridine-3-carboxamide]
Calu-6
  pIC50: 7.57
A549
  pIC50: 8.15
BRAF; read-out: BRAF IC50; Table 3
  pIC50: 7.85
NCI-H2122
  pIC50: 8.22
[2]
  microsomal CLint at 0.99 µM: 546 µL/min/mg
MEK1 [3]
  pIC50: 8.00

## CCNS(=O)(=O)Nc1cccc(Cc2cc(C(=O)NC3CC3)c(Nc3ccc(I)cc3F)n(C)c2=O)c1F [Compound K-13, N-Cyclopropyl-5-[[3-(ethylsulfamoylamino)-2-fluorophenyl]methyl]-2-(2-fluoro-4-iodoanilino)-1-methyl-6-oxopyridine-3-carboxamide]
Calu-6
  pIC50: 7.28
A549
  pIC50: 7.74
BRAF; read-out: BRAF IC50; Table 3
  pIC50: 8.05
NCI-H2122
  pIC50: 7.89
[2]
  microsomal CLint at 0.99 µM: 321 µL/min/mg
MEK1 [3]
  pIC50: 6.94

## CNS(=O)(=O)Nc1nccc(Cc2cc(C(N)=O)c(Nc3ccc(I)cc3F)cn2)c1F [Compound L-1, 5-(2-Fluoro-4-iodoanilino)-2-[[3-fluoro-2-(methylsulfamoylamino)pyridin-4-yl]methyl]pyridine-4-carboxamide]
Calu-6
  pIC50: 7.39
A549
  pIC50: 7.68
BRAF; Table 3; read-out: BRAF IC50
  pIC50: 8.70
NCI-H2122
  pIC50: 7.77
[2]
  microsomal CLint at 0.99 µM: 10 µL/min/mg
MEK1 [1]; Table 3
  pIC50: 8.22

## CNS(=O)(=O)Nc1nccc(Cc2cc(C(N)=O)c(Nc3ccc(I)cc3F)n3cncc23)c1F [Compound M-1, 5-(2-Fluoro-4-iodoanilino)-8-[[3-fluoro-2-(methylsulfamoylamino)pyridin-4-yl]methyl]imidazo[1,5-a]pyridine-6-carboxamide]
Calu-6
  pIC50: 7.55
A549
  pIC50: 7.57
BRAF; read-out: BRAF IC50; Table 3
  pIC50: 8.40
NCI-H2122
  pIC50: 7.89
[2]
  microsomal CLint at 0.99 µM: 59 µL/min/mg
MEK1 [3]
  pIC50: 8.30

## CNS(=O)(=O)Nc1cccc(Oc2cc(F)cc(Nc3ccc(I)cc3F)c2C(N)=O)c1 [Ref-2, 4-Fluoro-2-(2-fluoro-4-iodoanilino)-6-[3-(methylsulfamoylamino)phenoxy]benzamide, reference compound]
Calu-6
  pIC50: 7.46
A549
  pIC50: 8.10
BRAF; read-out: BRAF IC50; Table 3
  pIC50: 7.92
NCI-H2122
  pIC50: 8.52
[2]
  microsomal CLint at 0.99 µM: 12 µL/min/mg
MEK1 [3]
  pIC50: 6.44

## CC(C)S(=O)(=O)Nc1cccc(Oc2cncc(Nc3ccc(I)cc3F)c2C(N)=O)c1 [Ref-3, 3-(2-Fluoro-4-iodoanilino)-5-[3-(propan-2-ylsulfonylamino)phenoxy]py ridine-4-carboxamide, reference compound]
Calu-6
  pIC50: 8.00
A549
  pIC50: 8.70
BRAF; read-out: BRAF IC50; Table 3
  pIC50: 7.92
NCI-H2122
  pIC50: 9.00
[2]
  microsomal CLint at 0.99 µM: 11 µL/min/mg
MEK1 [3]
  pIC50: 8.30
